In patent US20230118795A1, “ARYL OR HETEROARYL PYRIDONE OR PYRIMIDINE DERIVATIVE, PREPARATION METHOD AND USE THEREOF” (SUZHOU ZELGEN BIOPHARMACEUTICALS CO., LTD., priority 2020, published 2023):
pIC50: −log10 of the molar value. Where two headings read alike, the source gives them in different places.

Key:
[1] = test system: NCI-H358 (KRAS^G12C mutation) cell; test: Cell assay of antiproliferative activity against NCI-H358 cell (Celltiter-Glo, 5 days); format: cell-based; conditions: 5 days incubation
Procedure, shortened: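 KRAS G12C NCI-H358 cells were plated in 384-well format and incubated overnight before compound addition. Compounds were added as a 10-point series (diluted from 50 μM to 0.003 μM before transfer) and incubated 5 days. Viability by CellTiter-Glo luminescence, with IC50 from curve fitting.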

[2] = Pharmacokinetic test in mice, plasma concentration by LC/MS/MS; format: in vivo; conditions: male ICR mice, 30 mg/kg by gavage, CMC/TW80 carrier, n = 4, mean
Procedure: Evaluation of Pharmacokinetic Tests in Mice
Male ICR mice with a body weight of about 20-30 g, were given 30 mg/kg of solutions of compounds of Examples 10B, 16B, 18A, 63B and 78B of the present invention [CMC/TW80 as carrier] by gavage after fasting overnight. Blood samples were collected at 0.5, 1.0, 2.0, 4.0, 6.0, 8.0, 12 and 24 hours after the compound was administrated, and the concentrations of the compound in plasma were determined by LC/MS/MS.

NCI-H358 tumor cells = test: H358 CDX tumor model, anti-tumor activity; format: in vivo; conditions: NCI-H358 xenograft in nude mice; for efficacy compared with control compound AMG 510 (in words): 20 mg/Kg; for TV (mm^3) Day 0: Day 0 (at grouping), 20 mg/Kg intragastric every day; for % TGI / % Tumor Growth / TV (mm^3) Day 20: Day 20, 20 mg/Kg intragastric every day
Procedure: 100 uL suspension containing 5×10^6 NCI-H358 tumor cells was subcutaneously injected into the right posterior back of nude mice. The health of the mice was monitored daily. Measurements were started when the tumor grew palpable. The tumor volume calculation formula was adopted: 0.5×L×W2, where L and W represented tumor length and width, respectively. The tumor grew to about 200 mm^3, the mice were randomly divided into groups. Mice were intragastrically administrated the corresponding dose (20 mg/Kg) of the compound's solution every day, and their general status was monitored at the same time. The tumor was measured 2 times a week, and the weight was measured twice a week.

| Structure (SMILES) | pIC50 [1] | AUC0-t [2] | Cmax [2] | further results |
| --- | --- | --- | --- | --- |
| C=CC(=O)N1CCN(c2nc(=O)n(-c3c(C(C)C)cccc3S(C)(=O)=O)c3nc(-c4c(O)cccc4F)c(F)cc23)[C@@H](C)C1 (single isomer, unassigned) [Example 10B] | 8.30 | 1548 ng·h/mL | 1570 ng/mL |  |
| C=CC(=O)N1CCN(c2nc(=O)n(-c3c(C(C)C)ccnc3S(C)(=O)=O)c3nc(-c4c(O)cccc4F)c(F)cc23)[C@@H](C)C1 (single isomer, unassigned) [Example 16B] | 8.15 | 46.1 ng·h/mL | 26.1 ng/mL |  |
| C=CC(=O)N1CCN(c2nc(=O)n(-c3c(S(C)(=O)=O)ccnc3C(C)C)c3nc(-c4c(O)cccc4F)c(F)cc23)[C@@H](C)C1 (single isomer, unassigned) [Example 18A] | 7.89 |  |  | AUC0-t ([2]; mouse, po, read-out: AUC0-t): 219 ng·h/mL; Cmax ([2]; mouse, po, read-out: Cmax): 336 ng/mL |
| C=CC(=O)N1C[C@H](C)N(c2nc(=O)n(-c3c(C4CCC4)cccc3S(C)(=O)=O)c3nc(-c4c(O)cccc4F)c(F)cc23)C[C@H]1C (single isomer, unassigned) [Example 63B] | 8.10 | 1540 ng·h/mL | 796 ng/mL | efficacy compared with control compound AMG 510 (in words) (NCI-H358 tumor cells): better efficacy than the control compound AMG 510; TV (mm^3) Day 0 (NCI-H358 tumor cells): 196 mm^3; % TGI (NCI-H358 tumor cells): 97.8%; % Tumor Growth (NCI-H358 tumor cells): 19%; TV (mm^3) Day 20 (NCI-H358 tumor cells): 263 mm^3 |
| C=CC(=O)N1C[C@H](C)N(c2nc(=O)n(-c3c(C(C)C)cccc3S(C)(=O)=O)c3nc(-c4c(O)cccc4F)c(F)cc23)C[C@H]1C (single isomer, unassigned) [Example 78B] | 8.15 | 688 ng·h/mL | 722 ng/mL | efficacy compared with control compound AMG 510 (in words) (NCI-H358 tumor cells): better efficacy than the control compound AMG 510; TV (mm^3) Day 0 (NCI-H358 tumor cells): 196 mm^3; % TGI (NCI-H358 tumor cells): 98.5%; % Tumor Growth (NCI-H358 tumor cells): 13%; TV (mm^3) Day 20 (NCI-H358 tumor cells): 231 mm^3 |
| C=CC(=O)N1CCN(c2nc(=O)n(-c3c(C)ccnc3C(C)C)c3nc(-c4c(O)cccc4F)c(F)cc23)[C@@H](C)C1 [AMG510, reference compound] |  |  |  | TV (mm^3) Day 0 (NCI-H358 tumor cells): 196 mm^3; % TGI (NCI-H358 tumor cells): 86.8%; % Tumor Growth (NCI-H358 tumor cells): 117%; TV (mm^3) Day 20 (NCI-H358 tumor cells): 437 mm^3 |
| C=CC(=O)N1CCN(c2nc(=O)n(-c3c(C)cccc3S(C)(=O)=O)c3nc(-c4c(O)cccc4F)c(F)cc23)[C@@H](C)C1 [Example 87, 4-((S)-4-acryloyl-2-methylpiperazin-1-yl)-6-fluoro-7-(2-fluoro-6-hydroxyphenyl)-1-(2-methyl-6-(methylsulfonyl)phenyl) pyridino[2,3-d] pyrimidin-2(1H)-one] |  |  |  | pIC50 ([1]; Homo sapiens, NCI-H358, 120 h): > 7.00 |
| C=CC(=O)N1CCN(c2nc(=O)n(-c3cccnc3S(C)(=O)=O)c3nc(-c4c(O)cccc4F)c(F)cc23)[C@@H](C)C1 [Example 88, 4-((S)-4-acryloyl-2-methylpiperazin-1-yl)-6-fluoro-7-(2-fluoro-6-hydroxyphenyl)-1-(2-(methylsulfonyl)pyridin-3-yl) pyridino [2,3-d] pyrimidin-2(1H)-one] | 5.00 to 6.00 |  |  |  |
| C=CC(=O)N1CCN(c2nc(=O)n(-c3cnccc3S(C)(=O)=O)c3nc(-c4c(O)cccc4F)c(F)cc23)[C@@H](C)C1 [Example 89] | 5.00 to 6.00 |  |  |  |
| C=CC(=O)N1CCN(c2nc(=O)n(-c3ccccc3S(C)(=O)=O)c3nc(-c4c(O)cccc4F)c(F)cc23)CC1CC#N (centres unmarked) [Example 90, 2-(1-acryloyl-4-(6-fluoro-7-(2-fluoro-6-hydroxyphenyl)-1-(2-(methylsulfonyl)phenyl)-2-oxo-1,2-dihydropyridino [2,3-d]pyrimidin-4-yl)piperazin-2-yl) acetonitrile] | 5.00 to 6.00 |  |  |  |
| C=CC(=O)N1CCN(c2nc(=O)n(-c3c(C)cccc3S(C)(=O)=O)c3nc(-c4c(O)cccc4F)c(F)cc23)CC1CC#N (centres unmarked) [Example 91, 2-(1-acryloyl-4-(6-fluoro-7-(2-fluoro-6-hydroxyphenyl)-1-(2-methyl-6-(methylsulfonyl)phenyl)-2-oxo-1,2-dihydropyridino [2,3-d]pyrimidin-4-yl)piperazin-2-yl) acetonitrile] | 5.00 to 6.00 |  |  |  |
| C=CC(=O)N1CCN(c2nc(=O)n(-c3cccnc3S(C)(=O)=O)c3nc(-c4c(O)cccc4F)c(F)cc23)CC1CC#N (centres unmarked) [Example 92, 2-(1-acryloyl-4-(6-fluoro-7-(2-fluoro-6-hydroxyphenyl)-1-(2-(methylsulfonyl)pyridin-3-yl)-2-oxo-1,2-dihydropyridino [2,3-d]pyrimidin-4-yl)piperazin-2-yl) acetonitrile] | < 5.00 |  |  |  |
